Results on three compounds are retold here after patent US6664290B1, “Oral or vaginal administration of mesoprostol in third stage labor” (University College London, priority 1994, dated 2003).

For data set [1] the following is noted: cited from earlier work; for Time of peak plasma levels: oral, substantially the same if administered vaginally.
Data set [2] concerns women in the third stage of labour. It is filed as in vivo. From the text: The study protocol was reviewed and approved by the local Ethics Committee. Information sheets explaining the aims of the trial were distributed to potential participants either in the antenatal classes, antenatal clinics, and the Day Assessment Area. On admission to labour ward women were reminded about the trial and a written informed consent was obtained if they still wished to participate in the study.
The main objective of this study was to estimate the incidence of primary postpartum haemorrhage (PPH). This was defined as estimated blood loss of or more than 500 ml. Other measures of blood loss were also considered e.g. severe PPH i.e. >1000 ml; secondary PPH (after 24 hours); need for blood transfusion; use of therapeutic oxytocics (i.e. the need for extra oxytocics); length of third stage; incidence of manual removal of placenta; the need for subsequent evacuation of the retained products of conception; and the change in haemoglobin and packed cell volume in those who had instrumental delivery and/or who had blood loss of 500 ml or more compared to the Haemoglobin done late in pregnancy. Potential adverse effects of the drug used were also recorded e.g. incidence of vomiting, diarrhoea, shivering and hypertension (defined as diastolic blood pressure >100 or Systolic Blood pressure >150). All of these measures were documented by the midwife on call on a specially designed form with demographic information and information related to the type and circumstances of delivery.
The principle criteria for exclusion were: placenta praevia, multiple pregnancy, intrauterine death, gestational age less than 32 weeks gestation, women with previous PPH and women in their sixth pregnancy or more. In this pilot study, women with hypertension, preeclampsia or pregnancy induced hypertension were also excluded.
Syntometrine was not given but midwives were instructed to do so if they felt there was a clinical indication. Otherwise the delivery of the placenta was managed according to hospital policy (active management policy). Blood loss was estimated clinically by the attendant midwife or obstetrician. A sample of venous blood was obtained two days later after birth for haemoglobin and packed cell volume assessment from women who had instrumental delivery or from those who had blood loss of 500 ml or more. A record was kept of the last recorded blood pressure and temperature before birth and one hour after delivery.
Categorical variables are summarised as numbers and percentages, whereas continuous variables that are normally distributed are presented as means and standard deviations (SD), continuous variables that are not normally distributed are presented as medians and interquartile ranges (IQR). Comparisons between the systolic, diastolic blood pressure, haemoglobin, haematocrit and temperature before and after delivery were conducted via the paired t-test. Association between two categorical variables was assessed via Chi-square testing. The significance level was set to the 5% level.

Data set [3] deals with blood pressure. Put plainly: Blood pressure effect of Misoprostol in humans. The settings on record: administered to humans; dosages up to 800 μg. It is filed as in vivo, human.
Data set [4] concerns blood pressure. The conditions noted are these: animal studies; about 800 μg in a single dose; cited from earlier work.
The subject of data set [5] is blood pressure. The settings on record: patients; about 400 μg; cited from earlier work.
The subject of data set [6] is uterus (uterotonic contraction). The settings on record: intramuscular route, as part of Syntometrine; cited from earlier work.
Where [7] appears, read: after delivery (one hour), 600 μg oral, n = 184.
The mark [8] stands for this setting: after minus before delivery, n = 184.
[9] abbreviates: before delivery (last recorded, before drug), n = 184.
Setting [10] is: one hour after delivery vs last measured before delivery, not statistically significant.

Like-named read-outs stand apart in the source and are kept apart here.

For the compound `CCCCC(C)(O)C/C=C/[C@H]1[C@H](O)CC(=O)[C@@H]1CCCCCCC(=O)O` (mixture of isomers) [Misoprostol acid], in data set [1], the “Time of peak plasma levels” value was “less than fifteen”.
Consider `CCCCC(C)(O)C/C=C/[C@H]1[C@H](O)CC(=O)[C@@H]1CCCCCCC(=O)OC` (mixture of isomers) [Misoprostol], for which the “Number with blood loss >= 500 ml” value in data set [2] (600 μg Misoprostol orally immediately after delivery, n = 237) came out at 13. Further, in data set [2] (600 μg oral), the Cases of infection result is “no cases”, the “Incidence of shivering: patients who had epidural anaesthesia vs those who had not” value is “no significant difference” and the “Incidence of vomiting relative to that reported when syntometrine is used” value is “almost half”. In data set [2] (600 μg oral, n = 237), the “% with blood loss > 1000 ml” value is “(0%)”, the “% with blood loss greater than 500” value turned out to be 3%, the “% with diastolic - 100 (mm Hg)” value was “(0%)” and the “% with haemoglobin < 9 (g/l)” value is given as “(2%)”. Also, in data set [2] (600 μg oral, n = 237), the “% with systolic - 150 (mm Hg)” value is listed as “(1%)”, the “% with third stage length >= 30 minutes” value is listed as “(0.5%)”, the “Median (IQR) of blood loss” value stood at 200 mL and the “Median (IQR) third stage length” value is on record as 5 min. In data set [2] (600 μg oral, n = 237), the “Number who had shivering” value was 148, the “Number with blood loss > 1000 ml” value was 0, the “Number with blood loss greater than 500” value worked out at 6 and the “Number with diastolic - 100 (mm Hg)” value is on record as 0. For the same compound, in data set [2] (600 μg oral, n = 237), the “Number with haemoglobin < 9 (g/l)” value was 4, the “Number with manual removal of placenta” value is reported as 4, the “Number with repeat syntometrine injection” value amounted to 12 and the “Number with systolic - 150 (mm Hg)” value worked out at 2. Further, in data set [2] (600 μg oral, n = 237), the “Number with third stage length >= 30 minutes” value is 1 and the “Patients for whom blood transfusion was required” value turned out to be 2 patients. For the same compound, the “Number who had diarrhoea (loose stool)” value in data set [2] (600 μg oral, n = 237, first 24 hours after delivery) is 7. The compound also displayed a Number who vomited in data set [2] (600 μg oral, n = 237, first hour after delivery) of 19. The compound also gave a Duration of shivering in data set [2] (600 μg oral, self-limiting, twenty minutes after swallowing the tablets) of 10 to 15 min. In data set [2] (after delivery (one hour), 600 μg oral, n = 182), the “Temperature, mean” value is given as 37.1 C. In data set [2] (setting [7]), the “Diastolic blood pressure, mean” value is 73.0 mm Hg and the “Systolic blood pressure, mean” value was determined as 118.4 mm Hg. Further, the “Haematocrit, mean” value in data set [2] (after delivery, 600 μg oral, n = 73) was determined as 0.33. Moreover, the “Haematocrit, mean difference” value in data set [2] (after minus before delivery, n = 73) was −0.01. In data set [2] (after minus before delivery, n = 182), the “Temperature, mean difference (increase)” value came to 0.5 C. Besides, in data set [2] (setting [8]), the “Diastolic blood pressure, mean difference” value is listed as −0.8 mm Hg and the “Systolic blood pressure, mean difference” value is −1.0 mm Hg. Besides, in data set [2] (setting [9]), the “Diastolic blood pressure, mean” value turned out to be 73.8 mm Hg and the “Systolic blood pressure, mean” value came to 119.3 mm Hg. Further, the “Haematocrit, mean” value in data set [2] (before delivery, n = 73) stood at 0.34. For the same compound, the “Temperature, mean” value in data set [2] (before delivery, n = 182) is listed as 36.6 C. Besides, in data set [2] (setting [10]), the “Mean reduction of diastolic blood pressure (SE)” value was 0.8 (0.6) mm Hg and the “Mean reduction of systolic blood pressure (SE)” value is 1.0 (SE=0.9) mm Hg. The Hypertensive effects entry in data set [2] (women who were normotensive before labour, 600 μg oral) is reported as “could not identify any hypertensive effects”. Also, in data set [3], the Hypertensive effect result is “not hypertensive”. Further, in data set [1] (extensive metabolism during and/or prior to gastro intestinal absorption), the “Unchanged drug in the plasma or urine after use” value is given as “no unchanged drug is detected”. For the same compound, the “Time of peak plasma levels” value in data set [1] is listed as “less than fifteen”. Moreover, the “Effect on blood pressure” value in data set [4] was “mild hypotensive effect”. In addition, in data set [5], the “Effect on blood pressure” value is given as “substantially normotensive”.
As for `CC[C@H](C)[C@@H]1NC(=O)[C@H](Cc2ccc(O)cc2)NC(=O)[C@@H](N)CSSC[C@@H](C(=O)N2CCC[C@H]2C(=O)N[C@@H](CC(C)C)C(=O)NCC(N)=O)NC(=O)[C@H](CC(N)=O)NC(=O)[C@H](CCC(N)=O)NC1=O` [syntocinon], the Time to action result in data set [6] is “about 2.5 minutes”.
